Key:
[1] = tested on: purified T cells from C57BL/6 mice stimulated with bone marrow-derived BALB/c DCs; assay: Allogeneic T cell proliferation assay (3H-thymidine incorporation, IFN-γ ELISA); format: cell-based, mouse; conditions: for alloreactive T cell proliferation compared to media alone: WT BALB/c DCs + C57BL/6 T cells, 72 h then 3H-thymidine 16 h, HS 100 μg/mL, HSP70 5 μg/mL, C12-iE-DAP 1 μg/mL, L18-MDP 1 μg/mL
Procedure: Cells were co-cultured either alone (media) or in the presence of LPS (100 ng/mL), Pam3CSK4 (2 μg/mL), hyaluronan (HA) (100 μg/mL), sonicated-HA (sHA) (100 μg/mL), fibronectin (FN) (100 μg/mL), fibrinogen (Fbn) (100 μg/mL), heparan sulfate (HS) (100 μg/mL), HSP70 (5 μg/mL), HMGB1 (1 μg/mL), C12-iE-DAP (1 μg/mL), or L18-MDP (1 μg/mL) for 72 hours, and then pulsed ^3H-thymidine for 16 hours. Proliferation was determined by ^3H incorporation and results are expressed as cpm±SEM. Baseline alloreactivity is indicated by the dotted line; *p<0.05 compared with media alone. […] Results are representative of three independent experiments.
T cell proliferation assay: DCs were generated from bone marrow as previously described. (Yang, Y. (2004) Nat. Immunol. 5:508-15). CD3^+ T cells were isolated from B6 mice using a CD3 negative selection magnetic bead kit (Invitrogen, Carlsbad, United States). Proliferation assays were performed as previously described. (Brennan, T. V. et al. (2008) Transplantation 85:247-55).
Purified T cells from C57BL/6 mice were stimulated with bone marrow-derived DCs from BALB/c mice and their proliferation was measured by the incorporation of ^3H-thymidine. DAMPs tested included proteins—fibronectin (FN), fibrinogen (Fbn), heat shock protein 70 (HSP70), and high-mobility group protein B1 (HMGB1); and glucosaminoglycans—heparan sulfate (HS) and hyaluronan (HA). For comparison, two well-described PAMPs, lipopolysaccharide (LPS) and a synthetic tripalmitoylated lipopeptide (Pam3CSK4) that are ligands of the TLR4 homodimer and the TLR1/2 heterodimer, respectively, were tested. As nucleotide-binding domain, leucine-rich repeat containing receptors (NLRB) are another family of innate immune receptors, ligands of NLR1 (C12-iE-DAP) and NLR2 (L18-MDP) were further tested.
Next, to investigate whether HS enhanced proliferation of allogeneic T cells was due to the stimulation of TLRs on DCs or T cells, because MyD88 is a common adaptor protein involved in the signal transduction of all TLRs with the exception of TLR3^9, HS was tested against DCs or T cells that were deficient for MyD88. For this purpose, T cells from WT or MyD88^−/− C57BL/6 mice were stimulated with DCs from WT or MyD88^−/− BALB/c mice in an allogeneic proliferation assay in the presence of HS, LPS, Pam3CSK4, or media alone.
HS has been shown as a TLR4 ligand, (Johnson, G. B. et al., (2002) J. Immunol. 168:5233-39; Johnson, G. B., Brunn, G. J. & Platt, J. L. (2004) J. Immunol. 172:20-24). To determine whether the absence of TLR4 expression on stimulating DCs would reduce HS-induced alloreactive T cell proliferation equivalent to MyD88 deficiency, purified T cells from C57BL/6 mice were co-cultured with irradiated WT, TLR4^−/−, and MyD88^−/− BALB/c DCs and proliferation was measured by the incorporation of ^3H-thymidine.
Cytokine analysis: Cell culture supernatants were obtained from DC cultures or T cell proliferation assays and assayed for IL-6, IL-12 and IFN-γ by ELISA (BD Biosciences) according to the manufacturer's standard protocols. HEK 293 supernatants were tested for human IL-8 by ELISA (BioLegend, San Diego, United States).
Allogenic heart transplants were performed between C57BL/6 donors and (BALB/c x DBA.1)F1 recipients. Serum HS was measured by ELISA Immunohistologic staining for HS and CD3 was performed on heart tx tissue. Bone marrow derived dendritic cells (DCs) and purified T cells from WT-, MyD88- or TLR4-deficient mice were used in MLR assays to test for proliferation and cytokine production in response to HS. CD40 and CD80 expression on stimulated DCs was measured by FACS. T cell proliferation was determined by ^3H-thymidine incorporation and CFSE dye dilution assay. HEK293 NF-kB-luciferase reporter cell lines stably expressing CD14, MD2, and TLR4 or TLR2 were used in assays of HS activity.

[2] = tested on: BALB/c recipients of B10.D2 Allo-BM+LC (GVHD); assay: Murine Allo-HSCT model of GVHD (B10.D2→BALB/c); format: in vivo, mouse
Procedure: BALB/c recipient of B10.D2 Allo-BM+LC were treated with subcutaneous injections of the HS mimetic, PG545 (20 mg/kg in PBS), or PBS control once weekly, beginning 1 day prior to Allo-HSCT. […] FIG. 9C is a graph showing survival analysis of Allo-BM+LC+PG545 (n=10) compared to Allo-BM+LC+PBS (n=10).
Antibodies and flow cytometry: Anti-CD40 (HM40-3), anti-CD80 (16-10A1), anti-Thy1.1 (OX-7), anti-Ly5.1 (A20) anti-IFN-γ (XMG1.2), rat IgG1 isotype (R3-34), and the BrdU Flow Kit (FITC-labeled) were from BD Biosciences (San Jose, Calif., USA). Intracellular IFN-γ staining was performed as previously described. […] For in vivo BrdU labeling, mice were injected with 50 μg BrdU/gm i.p. 1 hour prior to analysis. Collection of flow cytometric data was acquired using a FACSCanto (BD Biosciences), and events were analyzed using FloJo software (Tree Star, Inc., Ashland, United States). […]
Allo-HSCT: For Allo-HSCT, wild-type (WT) and TLR4−/− BALB/c mice received myeloablative total-body irradiation (8.5 Gy) followed by intravenous infusion of 1×10^7 B10.D2 or BALB/c T-cell depleted bone marrow (TCD-BM). […] To induce GVHD, 5×10^6 lymph node cells from inguinal, axillary, cervical and mesenteric lymph nodes of B10.D2 or BALB/c mice were injected intravenously in addition to TCD-BM.
(§1) In another model of acute GVHD, 5×10^6 lymph node cells and 1×10^7 TCD BM from C3H.SW were transferred to C57BL/6 recipients irradiated with 10 Gy. HSCT recipients of these two GVHD models then received either intraperitoneal (i.p.) injections of 2 mg of al-antitrypsin (A1AT, Aralast™, Baxter, Deerfield, United States) resuspended in 200 μL sterile phosphate-buffered saline (PBS), subcutaneous (s.c.) injections of 20 mg/kg PG545 (Progen Pharmaceuticals Limited, Queensland, Australia) in 200 μL PBS, or 200 μL PBS alone at the indicated intervals.
In this model, lethally irradiated BALB/c mice were transplanted with 1×10^7 T cell-depleted bone marrow (TCD-BM) and 5×10^6 lymphocytes (LCs) from B10.D2 mice (Allo-BM+LC). Control mice received B10.D2 TCD-BM only (Allo-BM only) or syngeneic BALB/c TCD-BM and 5×10^6 BALB/c LCs (Syn-BM+LC).

[3] = tested on: C57BL/6 recipients of C3H.SW TCD-BM and LCs (GVHD); assay: Second GVHD model (C3H.SW→C57BL/6); format: in vivo, mouse; conditions: A1AT 2 mg i.p. every 3 days; p=0.032
Procedure: FIG. 7A is a graph showing serum HS concentrations at the indicated time points following Allo-HSCT (B10.D2→BALB/c; 1×10^7 B10.D2 TCD-BM and 5×10^6 B10.D2 LC) treated with A1AT (2 mg) or PBS every 3 days by i.p. injection, starting 1 day prior to transplantation; n=3 per data point, as determined by ELISA assay; *p<0.05. FIG. 7B is a graph showing survival and FIG. 7C is a graph showing GVHD clinical score of Allo-BM only (n=5) or Allo-BM+LC treated with A1AT (n=8) or PBS (n=5). Data is from one of two independent experiments with identical results. […] Survival of BALB/c recipients of Allo-BM+LC from B10.D2 donors (n=11) and TLR4^−/− BALB/c recipients of Allo-BM+LC from B10.D2 donors administered A1AT (n=8) or PBS (n=14) every 3 days by intraperitoneal injection, starting 1 day prior to transplantation.
as §1, with “intervals. […]” for “intervals.”

BALB/c DCs = assay: DC maturation: surface expression of CD40 and CD80 by FACS; format: cell-based, mouse; conditions: 24 h; HS 100 μg/mL, Pam3CSK4 2 μg/mL
Procedure: FIG. 3A is a graph showing WT, TLR4^−/−, or MyD88^−/− BALB/c DCs (2×10^5/well) were stimulated with LPS (100 ng/mL), HS (100 μg/mL), or Pam3CSK4 (2 μg/mL), or left unstimulated (media) for 24 hours, and measured for surface expression of co-stimulatory molecules CD40 and CD80 by FACS analysis. FIGS. 3B and 3C are graphs showing WT, MyD88^−/−, and TLR4^−/− BALB/c cultured DCs were co-cultured with media alone, LPS, HS, or Pam3CSK4 as in (A) and culture supernatants were tested for IL-6 (B) and IL-12 (C) by ELISA. Data are representative of three independent experiments; *p<0.05 compared with media alone.
To investigate how activation of DCs by HS promoted the alloreactive T cell response, an as DC maturation and production of pro-inflammatory cytokines are key initial events in triggering adaptive immune responses, the ability of HS to upregulate DC expression of costimulatory molecules, CD40 and CD80, and pro-inflammatory cytokines, IL-6 and IL-12 was tested.
Antibodies and flow cytometry: Anti-CD40 (HM40-3), anti-CD80 (16-10A1), anti-Thy1.1 (OX-7), anti-Ly5.1 (A20) anti-IFN-γ (XMG1.2), rat IgG1 isotype (R3-34), and the BrdU Flow Kit (FITC-labeled) were from BD Biosciences (San Jose, Calif., USA). Intracellular IFN-γ staining was performed as previously described. (Brennan, T. V. et al. (2008) Transplantation 85:247-55). For in vivo BrdU labeling, mice were injected with 50 μg BrdU/gm i.p. 1 hour prior to analysis. Collection of flow cytometric data was acquired using a FACSCanto (BD Biosciences), and events were analyzed using FloJo software (Tree Star, Inc., Ashland, United States).

[4] = splenocytes six days after transplantation, vs PBS

CCCCCCCCCCCC(=O)N[C@H](CCC(=O)NC(CCCC(N)C(=O)O)C(=O)O)C(=O)O (some centres unmarked) [C12-iE-DAP, reference compound]
alloreactive T cell proliferation compared to media alone [1]: Neither of the NLR ligands tested produced a significant increase

CC(C)CCC[C@@H](C)[C@H]1CC[C@H]2[C@@H]3CC[C@H]4C[C@@H](O[C@@H]5O[C@H](COS(=O)(=O)O)[C@@H](O[C@H]6O[C@H](COS(=O)(=O)O)[C@@H](O[C@H]7O[C@H](COS(=O)(=O)O)[C@@H](O[C@H]8O[C@H](COS(=O)(=O)O)[C@@H](OS(=O)(=O)O)[C@H](OS(=O)(=O)O)[C@H]8OS(=O)(=O)O)[C@H](OS(=O)(=O)O)[C@H]7OS(=O)(=O)O)[C@H](OS(=O)(=O)O)[C@H]6OS(=O)(=O)O)[C@H](OS(=O)(=O)O)[C@H]5OS(=O)(=O)O)CC[C@]4(C)[C@H]3CC[C@]12C [PG545, reference compound]
post-transplant serum HS levels compared to PBS ([2]; PG545 20 mg/kg s.c. once per week from one day prior to transplant): higher
rate of GVHD (survival analysis) ([2]; PG545 20 mg/kg s.c. weekly, PBS 29, p<0.001): 21 days
percentage of proliferating donor CD8 T cells (BrdU uptake) ([2]; post-transplant day 6, PG545 20 mg/kg s.c. weekly, PBS 12.9±2.0, n=3, p<0.05): 23.2±2.3

A1AT: α1-antitrypsin (Aralast, Baxter), serum serine protease inhibitor
GVHD pathology scores (ear skin) ([2]; 3 weeks post-transplant, vs PBS): significantly lower
survival (MST) ([2]; A1AT 2 mg i.p. every 3 days, PBS controls 28.0, p<0.001): 48.5 days
GVHD clinical score curve ([2]; Allo-BM+LC recipients, 10-point scale, p=0.03): significantly lower
survival in TLR4−/− recipients compared to PBS treated TLR4−/− mice ([2]; TLR4−/− BALB/c recipients of B10.D2 Allo-BM+LC, p=0.30): no further survival benefit
serum HS levels compared to PBS ([2]; days 9 and 14 following HSCT, A1AT 2 mg i.p. every 3 days from 1 day prior to transplant): significantly lower
BrdU incorporation by donor Thy1.1+ T cells [2, 4]: significantly reduced
IFN-γ production by donor Thy1.1+ T cells [2, 4]: significantly reduced
survival compared with PBS treated group [3]: significant survival benefit

HSP70: heat shock protein 70 (Assay Designs), a DAMP [reference compound]
alloreactive T cell proliferation compared to media alone [1]: significantly increased

Pam3CSK4 [reference compound]
upregulation of CD40 and CD80 on MyD88−/− DCs (BALB/c DCs): but not on MyD88^−/− DCs
upregulation of CD40 and CD80 on TLR4−/− DCs (BALB/c DCs): able to upregulate
upregulation of CD40 and CD80 on WT DCs (BALB/c DCs): able to upregulate

polymyxin B [PMB, reference compound]
effect on LPS-induced proliferation ([1]; PMB 10 ug/mL, LPS 100 ng/mL): significant decrease
